Data published in ChEMBL document CHEMBL1201862, “PubChem BioAssay data set” (2004).
Values joined by “and” are separate entries in the source; they are usually repeats but may differ in a detail not shown here. Equal values may be shown once.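 Where inhibition never reached the appropriate level, the endpoint shown equals the highest concentration tested. Otherwise, values were interpolated linearly from a five-concentration, 48-hour dose response in 96-well plates. Abbreviation: GI50, concentration required for 50% inhibition of growth.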 Active and inactive are the calls of the source. No stated cut-off is given here; in the data, active = GI50 up to about 1.1 µM and inactive = higher. Where a SMILES comes first, the peptide text is derived from it. The star is where a group is joined. Boc = CC(C)(C)OC(=O)*

Tests used:
Test in all cases: NCI anticancer screen, dose series, 48 h
[1] = tested on: MDA-MB-231
[2] = tested on: M14
[3] = tested on: U-251
[4] = tested on: SK-OV-3
[5] = tested on: MDA-N
[6] = tested on: Malme-3M
[7] = tested on: K562
[8] = tested on: HCC 2998
[9] = tested on: SK-MEL-2
[10] = tested on: 786-0
[11] = tested on: IGROV-1
[12] = tested on: RPMI-8226
[13] = tested on: HCT-116
[14] = tested on: SK-MEL-28
[15] = tested on: A549
[16] = tested on: CCRF-CEM
[17] = tested on: MOLT-4
[18] = tested on: NCI-H522
[19] = tested on: HCT-15
[20] = tested on: A498

Q: With `CC1CCC2(C(=O)O)CCC3(C)C(=CCC4C5(C)CCC(O)C(C)(C)C5CCC43C)C2C1C` (stereo not drawn) as the compound, how does the GI50 [1] read?
A: 12.5 µM (inactive)

Q: What about the GI50 [2] of the same compound?
A: 2.16 µM (inactive)

Q: What about the GI50 [3] of the same compound?
A: 9.68 µM (inactive) and 17.8 µM (inactive)

Q: What about the GI50 [4] of the same compound?
A: 18.2 µM (inactive) and 15.5 µM (inactive)

Q: What about the GI50 [5] of the same compound?
A: 14.6 µM (inactive)

Q: What about the GI50 [6] of the same compound?
A: 15.1 µM (inactive) and 14 µM (inactive)

Q: What about the GI50 [7] of the same compound?
A: 3.84 µM (inactive)

Q: What about the GI50 [8] of the same compound?
A: 11.1 µM (inactive) and 10.6 µM (inactive)

Q: What about the GI50 [9] of the same compound?
A: 11.2 µM (inactive) and 15.9 µM (inactive)

Q: What about the GI50 [10] of the same compound?
A: 4.63 µM (inactive)

Q: And the GI50 [11]?
A: 13.4 µM (inactive) and 18.2 µM (inactive)

Q: What about the GI50 [12] of the same compound?
A: 10.6 µM (inactive) and 7.1 µM (inactive)

Q: What about the GI50 [13] of the same compound?
A: 14.4 µM (inactive) and 7.28 µM (inactive)

Q: `COc1ccccc1[S+]([O-])Nc1ccccc1` (stereo not drawn) was tested. Which GI50 [1] did it give?
A: > 100 µM (inactive)

Q: What about the GI50 [3] of the same compound?
A: 41.6 µM (inactive)

Q: And the GI50 [14]?
A: > 100 µM (inactive)

Q: And the GI50 [15]?
A: 74.6 µM (inactive)

Q: And the GI50 [16]?
A: 54.5 µM (inactive)

Q: What about the GI50 [5] of the same compound?
A: > 100 µM (inactive)

Q: What about the GI50 [17] of the same compound?
A: 32.2 µM (inactive)

Q: What about the GI50 [6] of the same compound?
A: > 100 µM (inactive)

Q: What about the GI50 [7] of the same compound?
A: 25.4 µM (inactive)

Q: What about the GI50 [8] of the same compound?
A: 83.2 µM (inactive)

Q: What about the GI50 [18] of the same compound?
A: 38.2 µM (inactive)

Q: What about the GI50 [9] of the same compound?
A: 34 µM (inactive)

Q: What about the GI50 [19] of the same compound?
A: 22.8 µM

Q: What about the GI50 [10] of the same compound?
A: > 100 µM (inactive)

Q: And the GI50 [11]?
A: 37.2 µM (inactive)

Q: What about the GI50 [12] of the same compound?
A: 72.9 µM (inactive)

Q: And the GI50 [13]?
A: 51.1 µM (inactive)

Q: `COC(=O)C(Cc1c[nH]c2ccccc12)NC(=O)C(Cc1c[nH]c2ccccc12)NC(=O)C(Cc1c[nH]c2ccccc12)NC(=O)OC(C)(C)C` (stereo not drawn) (Boc-Trp-Trp-Trp-OMe; configuration not given here) was tested. Which GI50 [1] did it give?
A: 30.1 µM (inactive)

Q: What about the GI50 [2] of the same compound?
A: 37.3 µM (inactive)

Q: And the GI50 [3]?
A: 18.5 µM (inactive)

Q: And the GI50 [14]?
A: 17.7 µM (inactive)

Q: And the GI50 [15]?
A: 39.2 µM (inactive)

Q: And the GI50 [20]?
A: 53.5 µM (inactive)

Q: What about the GI50 [5] of the same compound?
A: 20 µM (inactive)

Q: What about the GI50 [17] of the same compound?
A: 17.3 µM (inactive)

Q: What about the GI50 [6] of the same compound?
A: > 100 µM (inactive)

Q: What about the GI50 [7] of the same compound?
A: 27 µM (inactive)

Q: What about the GI50 [8] of the same compound?
A: 18.6 µM (inactive)

Q: And the GI50 [9]?
A: 17.3 µM (inactive)

Q: What about the GI50 [19] of the same compound?
A: 19.5 µM

Q: What about the GI50 [10] of the same compound?
A: 17.8 µM (inactive)

Q: And the GI50 [11]?
A: 18.7 µM (inactive)

Q: What about the GI50 [12] of the same compound?
A: 27.2 µM (inactive)

Q: What about the GI50 [13] of the same compound?
A: 16.2 µM (inactive)

Q: `CC(=O)CCn1c(=S)sc2ccccc21` was tested. Which GI50 [1] did it give?
A: > 100 µM (inactive)

Q: What about the GI50 [2] of the same compound?
A: > 100 µM (inactive)

Q: And the GI50 [3]?
A: > 100 µM (inactive)

Q: What about the GI50 [14] of the same compound?
A: > 100 µM (inactive)

Q: And the GI50 [15]?
A: > 100 µM (inactive)

Q: What about the GI50 [16] of the same compound?
A: 25.6 µM (inactive)

Q: And the GI50 [4]?
A: 86.9 µM (inactive)

Q: What about the GI50 [5] of the same compound?
A: > 100 µM (inactive)

Q: What about the GI50 [17] of the same compound?
A: > 100 µM (inactive)

Q: And the GI50 [8]?
A: > 100 µM (inactive)

Q: And the GI50 [18]?
A: 19.4 µM (inactive)

Q: What about the GI50 [9] of the same compound?
A: > 100 µM (inactive)

Q: What about the GI50 [19] of the same compound?
A: > 100 µM

Q: What about the GI50 [10] of the same compound?
A: > 100 µM (inactive)

Q: What about the GI50 [11] of the same compound?
A: 98.6 µM (inactive)

Q: And the GI50 [13]?
A: > 100 µM (inactive)

Q: What does the source list for `O=C(O)c1ccc(Nc2nc3ccccc3nc2C(=O)O)cc1`?
A: GI50 [1]: > 100 µM (inactive); GI50 [2]: > 100 µM (inactive); GI50 [3]: > 100 µM (inactive); GI50 [14]: > 100 µM (inactive); GI50 [15]: > 100 µM (inactive); GI50 [16]: > 100 µM (inactive); GI50 [4]: > 100 µM (inactive); GI50 [5]: > 100 µM (inactive); GI50 [17]: > 100 µM (inactive); GI50 [6]: > 100 µM (inactive); GI50 [7]: > 100 µM (inactive); GI50 [8]: > 100 µM (inactive); GI50 [18]: > 100 µM (inactive); GI50 [9]: > 100 µM (inactive); GI50 [10]: > 100 µM (inactive); GI50 [11]: > 100 µM (inactive); GI50 [12]: > 100 µM (inactive); GI50 [13]: > 100 µM (inactive)

Q: For `O=c1[nH]nc(Cc2ccccc2)n1-n1cnnc1`, which GI50 [1] is on record?
A: > 100 µM (inactive)

Q: What about the GI50 [2] of the same compound?
A: > 100 µM (inactive)

Q: And the GI50 [3]?
A: > 100 µM (inactive)

Q: And the GI50 [14]?
A: > 100 µM (inactive)

Q: What about the GI50 [15] of the same compound?
A: > 100 µM (inactive)

Q: And the GI50 [16]?
A: > 100 µM (inactive)

Q: What about the GI50 [4] of the same compound?
A: > 100 µM (inactive)

Q: And the GI50 [5]?
A: > 100 µM (inactive)

Q: What about the GI50 [17] of the same compound?
A: > 100 µM (inactive)

Q: What about the GI50 [7] of the same compound?
A: > 100 µM (inactive)

Q: And the GI50 [8]?
A: > 100 µM (inactive)

Q: What about the GI50 [18] of the same compound?
A: > 100 µM (inactive)

Q: What about the GI50 [9] of the same compound?
A: > 100 µM (inactive)

Q: And the GI50 [19]?
A: > 100 µM

Q: And the GI50 [10]?
A: > 100 µM (inactive)

Q: And the GI50 [11]?
A: > 100 µM (inactive)

Q: And the GI50 [12]?
A: > 100 µM (inactive)

Q: And the GI50 [13]?
A: > 100 µM (inactive)

Q: How did the GI50 [1] turn out when `c1ccc2c(c1)ccc1nc(-c3ccc4c(c3)OCO4)c3c(c12)CCC3` was run?
A: 67.5 µM (inactive)

Q: And the GI50 [2]?
A: > 100 µM (inactive)

Q: What about the GI50 [3] of the same compound?
A: > 100 µM (inactive)

Q: And the GI50 [14]?
A: > 100 µM (inactive)

Q: What about the GI50 [15] of the same compound?
A: 95.9 µM (inactive)

Q: What about the GI50 [16] of the same compound?
A: 74.5 µM (inactive)

Q: And the GI50 [20]?
A: > 100 µM (inactive)

Q: What about the GI50 [4] of the same compound?
A: > 100 µM (inactive)

Q: What about the GI50 [5] of the same compound?
A: > 100 µM (inactive)

Q: And the GI50 [17]?
A: 42.8 µM (inactive)

Q: And the GI50 [6]?
A: > 100 µM (inactive)

Q: What about the GI50 [7] of the same compound?
A: 20.5 µM (inactive)

Q: What about the GI50 [8] of the same compound?
A: 79.4 µM (inactive)

Q: What about the GI50 [9] of the same compound?
A: > 100 µM (inactive)

Q: And the GI50 [19]?
A: 83.2 µM

Q: And the GI50 [10]?
A: > 100 µM (inactive)

Q: What about the GI50 [12] of the same compound?
A: 37.1 µM (inactive)

Q: What about the GI50 [13] of the same compound?
A: 88.9 µM (inactive)

Q: For `O=C(C[C@@H]1CCCN2CCCC[C@H]12)N1c2ccccc2Sc2ccc(Cl)cc21`, which GI50 [1] is on record?
A: 14.7 µM (inactive)

Q: And the GI50 [2]?
A: 4.95 µM (inactive)

Q: And the GI50 [3]?
A: 12.1 µM (inactive)

Q: And the GI50 [14]?
A: 13.2 µM (inactive)

Q: What about the GI50 [15] of the same compound?
A: 16.6 µM (inactive)

Q: What about the GI50 [16] of the same compound?
A: 15 µM (inactive)

Q: What about the GI50 [5] of the same compound?
A: 16 µM (inactive)

Q: And the GI50 [17]?
A: 11.8 µM (inactive)

Q: What about the GI50 [6] of the same compound?
A: 16.2 µM (inactive)

Q: What about the GI50 [7] of the same compound?
A: 13.8 µM (inactive)

Q: And the GI50 [18]?
A: 13.5 µM (inactive)

Q: What about the GI50 [19] of the same compound?
A: 15.7 µM

Q: And the GI50 [10]?
A: 11.1 µM (inactive)

Q: What about the GI50 [11] of the same compound?
A: 12.6 µM (inactive)

Q: What about the GI50 [12] of the same compound?
A: 20.2 µM (inactive)

Q: And the GI50 [13]?
A: 16 µM (inactive)
